From patent US10899822B2, “Compositions comprising D-amino acid peptides and methods of production and use thereof for inhibiting autoantibodies” (The Board of Regents of the University of Oklahoma, priority 2013, dated 2021)
Entries after “also recorded” stand apart in the source; their conditions may differ. Marks after values point to notes of the source that are not given here. Values belong to the molecule of their own block, whether it stands above or below them. Square brackets hold non-standard residues; d marks the D form. Ends that are not written are not given here. Peptide text beside a SMILES is read from it.

How the values were obtained:
[1] = In vitro stability in synthetic gastric fluid (SGF, pepsin+HCL, pH 1.2) at 37° C., HPLC; assay type: in vitro ADME; conditions: pH 1.2, 37° C.
Method: FIG. 13 graphically illustrates an in vitro stability analysis of the native and RID peptides in synthetic gastric fluid (SGF, pepsin+HCL, pH 1.2) at 37° C., as measured by HPLC. This Figure indicates the rate of proteolysis of the AT1R-ECL2 L-amino acid peptide and the AT1R-ECL2 RID peptide under these conditions.
In FIG. 13, the AT1R-ECL2 L-amino acid peptide and the AT1R-ECL2 RID peptide were each separately incubated in artificial gastric juice (SGF, pepsin+HCL, pH 1.2) at 37° C., and proteolysis of the peptides was measured by HPLC.

[2] = In vitro stability in human serum at 37° C., HPLC; assay type: in vitro ADME
β1AR-AAb [3] = assay: Heart rate and sustained arrhythmias in β1AR-AAb + T4 excess animals; assay type: in vivo, rabbit
Method: (§1) The RID peptide was utilized in a study measuring the effective refractory period (ERP) in five New Zealand white rabbits. The procedures performed are outlined in the flow chart of FIG. 8. The ERP was measured during a pre-immune state and following immunization with β1AR ECL2 peptide to generate autoantibodies thereto, as described previously (Li et al. Am J Physiol Heart Circ Physiol. (2014) 306:H422-428). This was followed by administration of T4 (40 μg/kg), and an additive effect was observed on induced atrial tachyarrhythmias with the appearance of AF in a significant percentage of the T4 treated animals. […] In addition, the ERP in the rabbits was measured following administration of the β1AR-ECL2 RID peptide 90 minutes after T4.

β1AR-AAb [4] = assay: Effective refractory period (ERP) in β1AR-immunized rabbits; assay type: in vivo, rabbit
Source text: FIG. 8 contains a flow chart depicting the protocol of the procedures performed in rabbits in a study to determine the effective refractory period (ERP) in atrial cells in rabbit-models with pre-immune, post-immune (β1AR-immunization), and post-immune plus β1AR-ECL2 RID peptide administration. The ERP inversely is one parameter of the susceptibility of the cardiac cells to induction of tachyarrhythmias.
as §1
FIG. 10 illustrates the mean ERP for an atrial catheter lead.

[5] = tested on: AT1R activating autoantibodies; assay: Isolated rat cremaster artery contractility induced by serum of AT1R 2nd ECL peptide immunized rabbits; design: species or system rabbit; conditions: with ARB losartan
Source text: FIG. 4, Panel A illustrates the dose related contractile effect of serum from an AT1R 2nd ECL peptide immunized rabbit on an isolated rat cremaster artery. The in vitro contractile changes were expressed as % change (decrease) in diameter with the increasing dosage concentration (dilution). These effects are blocked by the selective angiotensin II receptor blocker (ARB) losartan.
There was a significant increase of in vitro cremaster contractility (p<0.01) in the post-immune state compared to the pre-immune values.
FIG. 5 illustrates the effect of in vitro incubation of the RID peptide with serum containing AT1R activating autoantibodies (rabbit) on cremaster artery contractility. […] The same response was observed when the serum was pre-incubated with the L-amino acid target peptide (FIG. 5, Panel B).
Data provided herein were obtained with immunized rabbit serum containing autoantibodies that will stimulate AT1R receptors transfected into CHO cells. […] A bioassay for Angiotensin II-like activity using an isolated perfused cremaster artery in vitro has also been developed.

AT1R autoantibodies = assay: Binding of iodinated RID peptide to autoantibodies; conditions: iodine atom in the molecular structure
Method: While therapeutic methods of using the RID peptides have been envisioned above, the scope of the presently disclosed inventive concepts also includes diagnostic uses of the RID peptides as well. The studies shown in FIGS. 12 and 13 were conducted at high concentrations (>250 μg/ml), and these concentrations are too high for study of absorption and use as part of a direct assay of serum binding to autoantibodies.

[6] = rabbit, in vivo
β1AR-AAb [7] = assay: cAMP production in β1AR-CHO cells stimulated by post-immune sera; assay type: cell-based, rabbit

rate of proteolysis compared with the RID peptide [1]: proteolyzed at a much faster rate
Molecule: C[C@H](N)C(=O)N[C@@H](Cc1ccccc1)C(=O)N[C@@H](Cc1c[nH]cn1)C(=O)N[C@@H](Cc1ccc(O)cc1)C(=O)N[C@@H](CCC(=O)O)C(=O)N[C@@H](CO)C(=O)N[C@@H](CCC(N)=O)C(=O)O [AT1R-ECL2 L-amino acid peptide, AFHYESQ, reference compound] (H-AFHYESQ-OH; N-terminus and C-terminus assumed)

peptide remaining intact ([2]; 24 hours (data not shown)): 80% | integrity at two hours [2]: resistance | integrity at two hours ([2]; listed as AT2R-ECL2 RID peptide): remained intact | integrity for four hours ([1]; four hours): remained intact | remaining at 6 h ([1]; synthetic gastric fluid (SGF), six hours, read-out: peptide remaining): 60%
Molecule: C[C@@H](NC(=O)[C@@H](Cc1ccccc1)NC(=O)[C@@H](Cc1c[nH]cn1)NC(=O)[C@@H](Cc1ccc(O)cc1)NC(=O)[C@@H](CCC(=O)O)NC(=O)[C@@H](CO)NC(=O)[C@H](N)CCC(N)=O)C(=O)O [AT1R-ECL2 RID peptide, qseyhfa] (H-[dQ][dS][dE][dY][dH][dF][dA]-OH; N-terminus and C-terminus assumed)

Molecule: N[C@@H](Cc1cc(I)c(Oc2cc(I)c(O)c(I)c2)c(I)c1)C(=O)O [T4, thyroxine, reference compound]
#sustained arrhythmias/#induction attempts (β1AR-AAb [3]; Post-immune + T4): 20/20**^# | Heart rate (β1AR-AAb [3]; Post-immune + T4): 280 ± 56 beats/min | Sustained AF (β1AR-AAb [3]; Post-immune + T4): 2/20 | Sustained AFL (β1AR-AAb [3]; Post-immune + T4): 0/20 | Sustained AT (β1AR-AAb [3]; Post-immune + T4): 2/20 | Sustained JT (β1AR-AAb [3]; Post-immune + T4): 2/20 | Sustained ST (β1AR-AAb [3]; Post-immune + T4): 11/20** | Sustained VT (β1AR-AAb [3]; Post-immune + T4): 3/20 | effect on ERP (β1AR-AAb [4]; post-immune + T4 (40 μg/kg), P<0.01): additive

Molecule: CCCCc1nc(Cl)c(CO)n1Cc1ccc(-c2ccccc2-c2nn[nH]n2)cc1 [losartan]
contractile effect of immunized rabbit serum on isolated rat cremaster artery (% decrease in diameter) [5]: blocked

Molecule: AT1R-ECL2 RID peptide has been iodinated: AT1R-ECL2 RID peptide directly iodinated; iodine atom in the structure blocked binding ([dQ][dS][dE][dY][dH][dF][dA]; also: directly iodinated, place not given here)
binding to autoantibodies (AT1R autoantibodies): blocked binding

Molecule: dcckpdnycr [β1AR-ECL2 RID peptide]
anti-RID antibodies by ELISA (immunogenicity) [6]: failed to demonstrate anti-RID antibodies | #sustained arrhythmias/#induction attempts (β1AR-AAb [3]; Post-immune + T4 + β1AR-RID): 6/20*^++ | Heart rate (β1AR-AAb [3]; Post-immune + T4 + β1AR-RID): 241 ± 35**^##+ beats/min | Sustained AF (β1AR-AAb [3]; Post-immune + T4 + β1AR-RID): 0/20 | Sustained AFL (β1AR-AAb [3]; Post-immune + T4 + β1AR-RID): 0/20 | Sustained AT (β1AR-AAb [3]; Post-immune + T4 + β1AR-RID): 1/20 | Sustained JT (β1AR-AAb [3]; Post-immune + T4 + β1AR-RID): 2/20 | Sustained ST (β1AR-AAb [3]; Post-immune + T4 + β1AR-RID): 3/20^+ | Sustained VT (β1AR-AAb [3]; Post-immune + T4 + β1AR-RID): 0/20 | sera-induced β1AR activation of cAMP production in β1AR-transfected cells (β1AR-AAb [7]; sera pre-incubated with RID peptide, P<0.01): effectively blocked | ability of post-immune sera to stimulate cAMP in β1AR-CHO cells (β1AR-AAb [7]; sera taken 90 after IV injection of 1 mg/Kg BW): marked reduction of the ability to stimulate cAMP | effect on ERP (msec), right atrial lead (β1AR-AAb [4]; post-immune + RID peptide IV, over 90 minutes): dramatic rise in ERP; also recorded: reverses the shortening of the ERP | effect on ERP (β1AR-AAb [4]; post-immune + T4 + RID peptide, 90 minutes after T4): reversed the β1AR-AAb effects but not the effect caused by T4
